According to patent US5849801A, “4-amino-5-oxy-2,6,6-trimethyl-2-cycloheptene compounds” (Tokyo Tanabe Company Limited, priority 1995, dated 1998):
pIC50: −log10 of the molar value. Structures can show the parent of a compound that is named as a salt.

Columns and labels:
[1] = test system: histamine-induced guinea pig bronchoconstriction; experiment: Effect on histamine-induced guinea pig bronchoconstriction models; type: in vivo, male Hartley guinea pigs; conditions: inhalation for 30 seconds, hydrochloride, histamine 3 μg/kg i.v. after 2 minutes
Description: After urethane anesthetization of male Hartley guinea pigs (body weight: 350~450 g, 5 per group, Nihon Crea Co.), a small cannula was inserted into trachea. Next, gallamine triethiodide (1 mg/kg) was intravenously administered, and the tracheal cannula was connected to a constant volume respirator. The artificial respiration was conducted with an air volume per breath of 7~10 ml, a breath frequency of 60/min and a lung application pressure of 10 cm water. The volume of air overflowing from the legs on the cannula side was recorded on a polygraph (RM6100: product of Nihon Koden Co.) with a model 7020 bronchospasm transducer (product of Ugo Basile). Hydrochloride of the test compounds were dissolved in physiological saline, and inhalation was performed with reference to the method of Minami et al. […] The inhalation load apparatus was prepared by directly incorporating an ultrasonic nebulizer into an artificial respiration circuit (Omron ultrasonic aspirator NE-U11B, product of […] Electric Co.). The test compound (mg/0.5 ml) was administered by inhalation for 30 seconds, and after 2 minutes histamine (3 μg/kg) was intravenously administered and the air overflow volume was measured. The bronchoconstriction rate was calculated as a percentage with 100 being the height of contraction when the airway was completely constricted. The inhibition rate was calculated by dividing the contraction rate of the test compound group by the contraction rate of the control group.

[2] = test system: rat peripheral arterial occlusion models; experiment: Effect on rat peripheral arterial occlusion models (5% lactic acid induced); type: in vivo, SD rats; conditions: i.v., lower leg lesions at 14 days
Description: Models were prepared following the method of Iwamoto et al. (Iwamoto, M. et al., Japanese Pharmacology & Therapeutics, Vol. 14, Suppl. 5, p. 41, 1986). Upon minimal dissection of the femoral regions of SD rats (6 per group) with a body weight of 250~350 g under Nembutal anesthesia, 0.1 ml of 5% lactic acid was administered intraarterially. The rats were raised for 14 days under normal conditions, and observed for lesions of the lower legs. The grading for the lesions was: "1" for nigrities only at the nail tips, "2" for nigrities up to the digits, "3" for necrosis of the digits, and "4" deciduation of the digits. Each of the digits of the lower legs on the side where lactic acid had been administered were graded, and the overall grade was determined as the index of lesions. The disorder inhibition rate was determined by dividing the index of lesions in the drug-administered group by the index of lesions of the control group. The drugs were dissolved in physiological saline or dimethylsulfoxide, and injected through the caudal vein 5 minutes prior to injection of the 5% lactic acid.

[3] = test system: antigen-induced guinea pig bronchoconstriction; experiment: Effect on antigen-induced guinea pig bronchoconstriction; type: in vivo, Male Hartley guinea pigs; conditions: inhaled one minute before i.v. DNP-bovine serum albumin; observed 15 minutes; passively sensitized
Description: Male Hartley guinea pigs (body weight: 300~450 g, Nihon Crea Co.) were intraperitonealy administered anti-DNP-Ascarls serum (1024-fold antibody titer) at 0.5 ml/kg. After 24 hours, under urethane anesthesia there were inserted a cannula into the trachea, a sphygmomanometric cannula into the left cervical artery and a drug injection cannula into the right jugular vein, and gallamine triethiodide (1.0 mg/0.5 ml/kg) was intravenously administered and connected to an artificial respirator (product of Ugo Basile). For the test, diphenhydramine (60 mg/ml/kg) was intraperitoneally administered, the compound of Example 16 was inhaled as the test compound after 14 minutes, and following intravenous administration of DNP-bovine serum albumin (1.0 mg protein/0.5 ml/kg) one minute after administration of the test compound, the degree of bronchoconstriction was observed over a period of 15 minutes. The bronchoconstriction rate was given as a percentage of the maximum air over flow volume obtained by clamping off the trachea. The test compounds were inhaled by nebulizing for 30 seconds with an ultrasonic nebulizer.

[4] = test system: blood pressure of anesthetized rats; experiment: Effect on blood pressure of anesthetized rats; type: in vivo, Male SD rats; conditions: Rattus norvegicus, intravenous, diastolic, urethane anesthesia, read-out: Reduction of blood pressure (%)
Description: Male SD rats (body weight: 250~350 g, product of Nihon Crea Co.) were placed under urethane anesthesia and then a sphygmomanometric pressure transducer was inserted into the left cervical artery and recording was made on a polygraph (RM6100, product of Nihon Koden Co.) using a strain pressure […], product of Nihon Koden Co.). The test compounds were dissolved in physiological saline and administered intravenously. The change in blood pressure was indicated as the reduction rate from the initial value of diastolic blood pressure just prior to administration of the test compound.

[5] = test system: platelet aggregation induced by arachidonic acid; experiment: Inhibiting effect on platelet aggregation (in vitro), arachidonic acid as aggregating agent; type: cell-based, Japanese white male house rabbits; conditions: Oryctolagus cuniculus; arachidonic acid 68.6 μg/ml, 37° C., platelet suspension
Description: (§1) Platelet rich plasma was prepared from Japanese white male house rabbits (body weight: 2.5~3.0 kg) following the method of Suzuki et al. (Suzuki, K. et al., The Clinical Report, Vol. 21, No. 13, p. 5263, 1987). The resulting platelet rich plasma solution was appropriately diluted with a Tris-Tyrode buffer solution (pH 7.4) to prepare a 4×10^5 platelet/μl platelet suspension to be used for the test. The platelet aggregation was measured using a platelet aggregometer (NBS Hematoracer 601, product of Nikoh Bioscience Co.). Specifically, 250 μl of the platelet suspension, 5 μl of a 96 mM calcium chloride solution and 5 μl of the test compound solution dissolved in methanol were added to a cuvette, and after incubating for one minute at 37° C., 20 μl of an aggregating agent was added and the maximum degree of aggregation occurring was determined. The aggregating agents used were platelet activating factor (PAF) (2.5 ng/ml) and arachidonic acid (68.6 μg/ml). The 50% inhibition concentration (IC50) was calculated from the results of measurement with various concentrations of each test compound.

[6] = test system: calcium contraction of the thoracic aorta; experiment: Effect on calcium contraction (in vitro), thoracic aorta specimens; set-up: species or system Male SD rats; conditions: Rattus norvegicus; 1×10^-7 M in dimethylsulfoxide; 0.3 mM calcium chloride, 80 mM KCl buffer
Description: This was investigated according to the method of Ishibashi, et al. (Ishibashi, A. et al., Folia Pharmacologica Japonica, Vol. 82, p. 361, 1983). Male SD rats of body weight approximately 300 g were used to prepare thoracic aorta extract specimens, which were suspended and immobilized in a organ bath containing 10 ml of Krebs-Henseleit buffer solution at 37° C. through which a mixed gas of oxygen (95%) and carbon dioxide (5%) had been passed. After equilibrating the specimens, they were equilibrated in a buffer solution without calcium chloride and then in an isotonic calcium-free 80 mM potassium chloride buffer solution replaced with potassium ions, and a resting tension of 0.2 g was applied. Contraction was induced by addition of 0.3 mM calcium chloride. The test compounds were added 10 minutes prior to addition of the calcium solution. The percent inhibition of the test compounds were calculated using the first contraction as the control (100% contraction). The test compounds were used for the test as solutions in dimethylsulfoxide at a 1×10^-7 M concentration.

[7] = test system: platelet aggregation induced by platelet activating factor (PAF); experiment: Inhibiting effect on platelet aggregation (in vitro), platelet activating factor (PAF) as aggregating agent; type: cell-based, Japanese white male house rabbits; conditions: Oryctolagus cuniculus; PAF 2.5 ng/ml, 37° C., platelet suspension
Description: as §1

Row | Compound | Brochoconstriction inhibition rate ([1]; 3.0 mg/0.5 ml) [%] | inhibition in vivo at 10 mg/kg [4] [%] | inhibition at 0.1 µM [6] [%] | further results
1 | CC1=CC(N2CCC(O)CC2)C(O)C(C)(C)CC1=O (stereo not drawn) [Example 23, 4-(4-hydroxypiperidino)-5-hydroxy-2,6,6-trimethyl-2-cyclohepten-1-one] | 23 | – | – | –
2 | CC1=CC(N2CCCCC2)C(O)C(C)(C)CC1=O (stereo not drawn) [Example 16, 5-hydroxy-4-piperidino-2,6,6-trinethyl-2-cyclohepten-1-one hydrochloride] | 32 | 40 | 24 | Inhibition rate ([2]; 3 mg/kg, solvent physiological saline (printed once, above)): 65%; Inhibition rate ([2]; 30 mg/kg, solvent physiological saline (printed once, above)): 78%; Brochoconstriction inhibition rate ([1]; 10.0 mg/0.5 ml): 46%; airway contraction / bronchoconstriction (FIG. 1) [3]: inhibited airway contract ion; inhibition in vivo at 1 mg/kg [4]: 6%; inhibition in vivo at 3 mg/kg [4]: 16%; pIC50 [5]: 4.00
3 | COCCNC1C=C(C)C(=O)CC(C)(C)C1O (stereo not drawn) [Example 10, 5-hydroxy-4-(2-methoxyethylamino)-2,6,6-trimethyl-2-cyclohepten-1-one] | – | – | 32 | –
4 | CC1=CC(N2CCCCC2)C(O)C(C)(C)CC1=O (single isomer, unassigned; (-)) [(-) Compound of Example 35, (-)-5-hydroxy-4-piperidino-2,6,6-trinethyl-2-cyclohepten-1-one] | – | – | – | Brochoconstriction inhibition rate ([1]; 10.0 mg/0.5 ml): 64%
5 | CC1=CC(N(C)Cc2ccccc2)C(O)C(C)(C)CC1=O (stereo not drawn) [Example 28, 5-hydroxy-4-(N-methylbenzylamino)-2,6,6-trimethyl-2-cyclohepten-1-one] | – | – | – | pIC50 [5]: 4.96
6 | CCCCNC1C=C(C)C(=O)CC(C)(C)C1O.Cl (stereo not drawn) [Example 9, 4-(1-butylamino)-5-hydroxy-2,6,6-trimethyl-2-cyclohepten-1-one hydrochloride] | – | 51 | – | Brochoconstriction inhibition rate ([1]; 1.0 mg/0.5 ml): 57%; inhibition in vivo at 1 mg/kg [4]: 14%; inhibition in vivo at 3 mg/kg [4]: 32%
7 | CC1=CC(N2CCOCC2)C(O)C(C)(C)CC1=O (stereo not drawn) [Example 18, 5-hydroxy-4-morpholino-2,6,6-trimethyl-2-cyclohepten-1-one] | – | – | 39 | pIC50 [7]: 4.01
8 | CCN(CC)C1C=C(C)C(=O)CC(C)(C)C1O (stereo not drawn) [Example 13, 4-diethylamino-5-hydroxy-2,6,6-trimethyl-2-cyclohepten-1-one] | – | 28 | – | –
9 | CCOC(=O)c1ccc(CNC2C=C(C)C(=O)CC(C)(C)C2O)cc1 (stereo not drawn) [Example 4, 5-hydroxy-4-(4-ethoxycarbonylbenzylamino)-2,6,6-trimethyl-2-cyclohepten-1-one] | – | – | 33 | –
10 | CC1=CC(N2CCCCCC2)C(O)C(C)(C)CC1=O (stereo not drawn) [Example 17, 4-hexamethyleneimino-5-hydroxy-2,6,6-trimethyl-2-cyclohepten-1-one] | – | 42 | – | –
11 | CC1=CC(N2CCCC2)C(O)C(C)(C)CC1=O.Cl (stereo not drawn) [Example 15, 5-hydroxy-4-pyrrolidino-2,6,6-trimethyl-2-cyclohepten-1-one hydrochloride] | 73 | 26 | – | –
12 | CC1=CC(NCc2ccccc2)C(O)C(C)(C)CC1=O (stereo not drawn) [Example 1, 4-benzylamino-5-hydroxy-2,6,6-trimethyl-2-cyclohepten-1-one] | – | – | 48 | Inhibition rate ([2]; 5 mg/kg, in physiological saline): 42%; pIC50 [5]: 4.00
13 | CC1=CC(NC(C)(C)C)C(O)C(C)(C)CC1=O (stereo not drawn) [Example 12, 5-hydroxy-4-(tert-butylamino)-2,6,6-trimethyl-2-cyclohepten-1-one] | – | 33 | – | –
14 | CC1=CC(NCCc2ccccc2)C(O)C(C)(C)CC1=O (stereo not drawn) [Example 2, 4-(2-phenylethylamino)-5-hydroxy-2,6,6-trimethyl-2-cyclohepten-1-one] | – | – | – | inhibition in vivo at 1 mg/kg [4]: 16%; inhibition in vivo at 3 mg/kg [4]: 31%
15 | CC1=CC(NC2CCCCC2)C(O)C(C)(C)CC1=O (stereo not drawn) [Example 8, 4-cyclohexylamino-5-hydroxy-2,6,6-trimethy-2-cyclohepten-1-one hydrochloride] | – | 45 | – | –
16 | CC1=CC(N2CCN(C)CC2)C(O)C(C)(C)CC1=O (stereo not drawn) [Example 22, 5-hydroxy-4-(4-methylpiperazino)-2,6,6-trimethyl-2-cyclohepten-1-one] | 17 | – | 48 | –
17 | CC1=CC(Nc2ccccc2)C(O)C(C)(C)CC1=O (stereo not drawn) [Example 5, 5-hydroxy-4-phenylamino-2,6,6-trimethyl-2-cyclohepten-1-one] | – | – | – | Inhibition rate ([2]; 5 mg/kg, in DMSO): 35%
18 | CC1=CC(N2CCCCC2)C(O)C(C)(C)CC1=NO (stereo not drawn) [Example 30, 5-hydroxy-4-piperidino-2,6,6-trimethyl-2-cyclohepten-1-one oxime] | 42 | – | – | –
19 | CC1=CC(N2CCC3(CC2)OCCO3)C(O)C(C)(C)CC1=O (stereo not drawn) [Example 26, 4-(1,4-dioxa-8-aza-spiro[5.4]decan-8-yl)-5-hydroxy-2,6,6-trimethyl-2-cyclohepten-1-one] | 53 | – | – | pIC50 [5]: 4.44
20 | CC1=CC(NC2CCCC2)C(O)C(C)(C)CC1=O (stereo not drawn) [Example 7, 4-cyclopentylamino-5-hydroxy-2,6,6-trimethyl-2-cyclohepten-1-one hydrochloride] | – | 34 | – | –
